Columns and labels:
[1] = system: HaCaT cells; assay: RT-PCR expression of SIRT1 and AQP3 decreased by UVB irradiation; format: cell-based, human; conditions: peptide 10, 50, 100 μM, 15 J/cm^2 UVB, 24 hours
Description: The expression of genes related to the skin barrier strengthening function is inhibited when irradiated with UV.
(§1) First, HaCaT cells were seeded in a 6-well plate at a cell density of 3×10^5 cell/well, and then the cells were cultured in DMEM medium containing 10% fetal bovine serum (FBS) for 24 hours. The cultured cells were washed once with serum free DMEM medium, and then the peptide of the present invention was mixed in 1 mL of the serum free DMEM medium at each of concentrations of 10, 50, and 100 μM, and dispensed into the cells. A positive control (PC) was treated with 2.5 mM of N-acetylcysteine (NaC) instead of the above peptide. The cells were cultured in a CO2 incubator at 37° C. for 1 hour.
The cultured cells were washed twice with PBS, 1 ml of PBS was added, and irradiation was performed with 15 J/cm^2 of UVB using a UV irradiator (VILBER LOURMAT, Cat No.: 3102-BSU, France). After removing PBS, 900 μL of the medium transferred to the tube was dispensed, and culture was performed in a CO2 incubator at 37° C. for 24 hours. The cultured cells were washed twice with PBS, and then RNA was extracted from the cells using easy blue (iNtRON, Cat. No.: 17061, Korea). The extracted RNA was subjected to an RT reaction using an RNA kit (enzynomics, Cat. No.: P581T, Korea). Thereafter, RT-PCR was performed using a PCR kit (enzynomics, Cat. No.: R581T, Korea). […]

[2] = system: HaCaT cells (human keratinocyte cell line); assay: Collagen ELISA and hyaluronic acid ELISA of culture medium, keratinocytes; format: cell-based; conditions: peptide 50 μM, 100 μM, 72 hours
Description: (§2) First, NIH3T3 cells and HaCaT cells (human keratinocyte cell line) were seeded in a 24-well plate at a cell density of 1×10^4 cell/well, and then the cells were cultured in DMEM medium containing 10% fetal bovine serum (FBS) for 24 hours. The cultured cells were washed once with serum free DMEM medium, and the peptide of the present invention was mixed in 2 mL of the serum free DMEM medium at each of concentrations of 50 μM, 100 μM, and 5 ng/ml, and dispensed into three wells by 500 μL per condition. The NIH3T3 cells were treated with 5 ng/ml of TGF-β1 instead of the above peptide as a positive control (PC). The HaCaT cells were treated with 100 nM of IGF-1 instead of the above peptide as a PC. The cells were cultured in a CO2 incubator at 37° C. for 72 hours.
(§3) The medium of the cultured NIH3T3 and HaCaT cells was centrifuged to settle a suspended matter, a supernatant was transferred to an e-tube, and then each of ELISA (abcam, Cat No.: ab210579, UK) and hyaluronic acid (HA) ELISA (ECHELON biosciences, Cat No.: K-1200, USA) was performed using the same.

[3] = system: HaCaT cells; assay: Intracellular reactive oxygen species after UVB irradiation (DCFH-DA, FACS); format: cell-based, human; conditions: peptide 10, 50, 100 μM, 1 hour before 15 J/cm^2 UVB, 24 hours after
Description: The reactive oxygen species level increases when UV is irradiated. Therefore, it was confirmed whether the reactive oxygen species level decreased again and the aging phenomenon caused by oxidative stress in cells was inhibited when treated with the peptide of the present invention.
as §1, with “5×10^5” for “3×10^5”, “25 μM” for “2.5 mM”, “Trolox” for “N-acetylcysteine (NaC)”, “peptide.” for “peptide. The cells were cultured in a CO2 incubator at 37° C. for 1 hour.”
The cells were cultured in a CO2 incubator at 37° C. for 1 hour. The medium of the cultured cells was transferred to a tube, 1 ml of PBS was added, and irradiation was performed with 15 J/cm^2 of UVB using a UV irradiator (VILBER LOURMAT, Cat No.: 3102-BSU, France). After removing PBS, 900 μL of the medium transferred to the tube was dispensed, and culture was performed in a CO2 incubator at 37° C. for 24 hours. […] After centrifugation, the cells were washed with PBS, and a fluorescence value was measured through FACS.

[4] = system: HaCaT cells; assay: RT-PCR expression of skin barrier genes (SIRT1, AQP3) in keratinocytes; format: cell-based, human; conditions: peptide 10, 50, 100 μM, 24 hours
Description: as §1, with “100 nM” for “2.5 mM”, “EGF” for “N-acetylcysteine (NaC)”, “24 hours.” for “1 hour.”
The cultured cells were washed twice with PBS, and then RNA was extracted from the cells using easy blue (iNtRON, Cat. No.: 17061, Korea). The extracted RNA was subjected to RT reaction using a kit (enzynomics, Cat. No.: RT200, Korea). Thereafter, RT-PCR was performed using a PCR kit (enzynomics, Cat. No.: R581T, Korea). The sequences of the primers of SIRT1 and AQP3 used in RT-PCR are shown in [Table 3]. The sequence of the primer of GAPDH used to compare the total RNA amount of each treatment group is shown in [Table 2].

[5] = system: NIH3T3 cells; assay: Collagen ELISA and hyaluronic acid ELISA of culture medium, fibroblasts; format: cell-based, mouse; conditions: peptide 50 μM, 100 μM, 72 hours
Description: as §2, §3

[6] = system: HaCaT cells; assay: Western blot of apoptotic-inducing factors (cleaved PARP-1, cleaved Caspase-3) increased by UVB irradiation; format: cell-based, human; conditions: peptide 10, 50, 100 μM, 15 J/cm^2 UVB, 24 hours
Description: Expression of the apoptotic-inducing factors increases when irradiated with UV. Therefore, it was confirmed whether the photoaging phenomenon of the cells was inhibited and the damaged cells were regenerated by confirming whether the increased expression levels of the apoptotic-inducing factors such as cleaved PARP-1 and cleaved Caspase-3 decreased again when treated with the peptide of the present invention.
as §1, with “5×10^5” for “3×10^5”, “peptide.” for “peptide. The cells were cultured in a CO2 incubator at 37° C. for 1 hour.”
The cells were cultured in a CO2 incubator at 37° C. for 1 hour, the medium of the cultured cells was transferred to a tube, 1 mL of PBS was added, and then irradiation was performed with 15 J/cm^2 of UVB using a UV irradiator (VILBER LOURMAT, Cat No.: 3102-BSU, France). After removing PBS, 900 μL of the medium transferred to the tube was added again, and culture was performed in a CO2 incubator at 37° C. for 24 hours. […]

[7] = system: NIH3T3 cells (mouse fibroblast cell line); assay: RT-PCR expression of ECM component genes (Col1a1, fibronectin, elastin) in fibroblasts; format: cell-based; conditions: peptide 10, 50, 100 μM, 24 hours, RT-PCR vs GAPDH
Description: First, NIH3T3 cells (mouse fibroblast cell line) were seeded in a 6-well plate at a cell density of 5×10^5 cell/well, and then the cells were cultured in DMEM medium containing 10% fetal bovine serum (FBS) for 24 hours. The cultured cells were washed once with serum free DMEM medium, and the peptide of the present invention was mixed in 1 mL of the serum free DMEM medium at each of concentrations of 10, 50, and 100 μM, and dispensed into the cells. A positive control (PC) was treated with 100 nM of bFGF instead of the above peptide. The cells were cultured in a CO2 incubator at 37° C. for 24 hours.
The cultured cells were washed twice with PBS, and RNA was extracted from the cells using easy blue (iNtRON, Cat. No.: 17061, Korea). The extracted RNA was subjected to RT-PCR using an RNA kit (enzynomics, Cat. No.: P581T, Korea). The sequences of the primers of collagen (Col1a1), fibronectin, and elastin used in RT-PCR and the sequence of the primer of GAPDH used to compare the total RNA amount of each treatment group are shown in [Table 2].

EYIPNRVCRR [SEQ ID NO: 1]
mRNA level of AQP3 decreased by UV irradiation [1]: increased again
mRNA level of SIRT1 decreased by UV irradiation [1]: increased again
amount of collagen protein ([2]; ELISA of medium (FIG. 2B)): gradually increased as a concentration of the peptide increased
amount of hyaluronic acid ([2]; HA ELISA of medium (FIG. 2B)): gradually increased as a concentration of the peptide increased
intracellular reactive oxygen species level increased by UV irradiation [3]: decreased
mRNA level of AQP3 [4]: increased
mRNA level of SIRT1 [4]: increased
amount of collagen protein ([5]; ELISA of medium (FIG. 2A)): gradually increased as a concentration of the peptide increased
amount of hyaluronic acid ([5]; HA ELISA of medium (FIG. 2A)): gradually increased as a concentration of the peptide increased
expression of Cleaved Caspase-3 increased by UV irradiation [6]: inhibited the expression
expression of Cleaved PARP-1 increased by UV irradiation [6]: inhibited the expression
expression of the Col1a1 gene [7]: gradually increased as a concentration of the peptide increased
expression of the elastin gene [7]: gradually increased as a concentration of the peptide increased
expression of the fibronectin gene [7]: gradually increased as a concentration of the peptide increased

From patent US20250064707A1, “PEPTIDE HAVING ANTI-AGING ACTIVITY, AND USE THEREOF” (CAREGEN CO., LTD., priority 2021, published 2025)
